Source: PMC8272044, “5-Phenoxy Primaquine Analogs and the Tetraoxane Hybrid as Antimalarial Agents” (Molecules, 2021)
Read-outs that look alike come from different tables or passages of the source. One block for each compound: values may come before it.

How the values were obtained:
[1] = test system: hematin polymerization; design: method as in PMID 10049273; conditions: literature value; read-out: IC50, hematin polymerization inhibition; cited from earlier work
[2] = test system: P. falciparum 3D7; experiment: In vitro blood antimalarial activity, malaria SYBR green I-based fluorescence (MSF) method; format: cell-based; conditions: Plasmodium falciparum; P. falciparum 3D7, blood stage, 48 h, mean ± SD of three biological repeats
Experimental: P. falciparum strain 3D7 (wild-type drug sensitive strain) was used in this study. This parasite was maintained continuously in vitro in human O+ erythrocytes (4% hematocrit) at 37 °C under 3% CO2 and 90% N2 in RPMI 1640 culture media (Life Technologies Limited, Paisley, UK) containing 2 mM L-Glutamine, 25 mM HEPES (Sigma), pH 7.4, 2g/L NaHCO3, 40 mg/L gentamicin, 0.37 mM hypoxanthine, and supplemented with 5 g/L Albumax I (Life Technologies, Grand Island, NY, USA). Every 3 to 4 days, the parasite culture was synchronized with 5% sorbitol and transferred into complete medium with uninfected erythrocytes. In vitro antimalarial activity was determined by using the malaria SYBR green I-based fluorescence (MSF) method. Briefly, 0.09 mL of cultured 1% ring-stage synchronized parasites and 2% hematocrit were transferred to individual wells of a standard 96-well microtiter plate and in vitro culture continued for 48 h, with 0.01 mL of compound at different concentration in each well. The compounds were first dissolved in DMSO and diluted with RPMI medium to 1% DMSO. The final concentration of DMSO in each well was 0.1%, which caused no effect on the parasite viability. Following 48 h, SYBR Green I solution (0.02 µL of 10,000X SYBR Green I/100 µL of buffer solution consisted of 20 mM Tris 20, pH 7.5, 5 mM EDTA, 0.008% w/v saponin and 0.08% v/v Triton X-100) was then added to each well, and fluorescence signals were measured by spectrofluorometer at ex485/em 535 nm. […] The result of each compound was normalized with control media for the overall background subtraction as 0% and untreated parasite with 0.1% DMSO as 100% control.

[3] = test system: hematin polymerization; experiment: Inhibition of hematin polymerization (heme polymerization assay); format: biochemical;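 on %Inh1: test concentrations in µM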;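 on %Inh2: test concentrations in µM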;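 on %Inh3: test concentrations in µM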
Experimental: The ability of the 5-phenoxy primaquine analogs to inhibit hematin polymerization was investigated using a protocol modified from the one described previously. […] After it was left standing for 15 min, Tween 20 (0.5 μM; Sigma) was added. […] The assay was performed in triplicate, and results were expressed as the percentage of inhibition relative to hemozoin formation in a negative control. The IC50 values were obtained from the sigmoidal dose–response curves using nonlinear regression curve fitting analyses with GraphPad Prism version 3.00 software. Each IC50 value is the result of at least three separate experiments.

[4] = test system: African green monkey kidney fibroblast (Vero cells); experiment: Cytotoxicity by sulforhodamine B (SRB) colorimetric assay; format: cell-based; conditions: Vero CC50 / P. falciparum 3D7 IC50
Description: (§1) A cytotoxicity test of selected analogs against African green monkey kidney fibroblast (Vero cells) was obtained from Bioassay Laboratory, BIOTEC, NSTDA, Thailand. They were maintained continuously in MEM/EBSS medium (Hyclone Laboratories Inc., South Logan, UT, USA), supplemented with 10% heated fetal bovine serum (GE Healthcare, PAA Laboratories GmbH, Pasching, Austria), 2.2 g/L Sodium bicarbonate (Emsure, Merck kGaA, Darmstadt, Germany), and 1% sodium pyruvate (Sigma). […] Then, the cells were fixed with 100 µL of 10% trichloroacetic acid (Sigma) at 4 °C for 45 min, washed, and dried at room temperature overnight. […] Finally, 200 µL of 10× Tris-base was added to each well to dissolve protein-bound dye. The OD was determined at a wavelength of 510 nm. The control media was used for overall background subtraction as 0% and untreated cells as 100% control without any cytotoxic effect. The IC50 value of each compound was determined from the dose–response curve.

[5] = as above; format: cell-based, African green monkey; conditions: African green monkey, Vero cells (kidney fibroblasts); Vero cells, 72 h, SRB, mean ± SD of three repeats
Description: as §1

[6] = pH 5.0, mean ± SD of three independent repeats, read-out: IC50, inhibition of hemozoin-initiated hematin polymerization
[7] = primary data, repeat 1, read-out: IC50, heme polymerization inhibition, repeat 1
[8] = primary data, repeat 2, read-out: IC50, heme polymerization inhibition, repeat 2
[9] = primary data, repeat 3, read-out: IC50, heme polymerization inhibition, repeat 3

Structure (SMILES): COc1cc(NC(C)CCCN)c2ncccc2c1 (stereo not shown) [PQ, primaquine bisphosphate, reference compound]
IC50 [1]: > 2500 µM | IC50 [2]: 11.3 ± 0.79 µM | %Inh1 ([3]; conc 2, repeat 1): -2.08% | %Inh2 ([3]; conc 2, repeat 2): 16.17% | %Inh3 ([3]; conc 2, repeat 3): 4.69% | %Inh1 ([3]; conc 10, repeat 1): -9.33% | %Inh2 ([3]; conc 10, repeat 2): 8.67% | %Inh3 ([3]; conc 10, repeat 3): 3.70% | %Inh1 ([3]; conc 50, repeat 1): 12.67% | %Inh2 ([3]; conc 50, repeat 2): -7.00% | %Inh3 ([3]; conc 50, repeat 3): 5.24% | %Inh1 ([3]; conc 100, repeat 1): 19.42% | %Inh2 ([3]; conc 100, repeat 2): 22.96% | %Inh3 ([3]; conc 100, repeat 3): 19.59% | %Inh1 ([3]; conc 200, repeat 1): 46.18% | %Inh2 ([3]; conc 200, repeat 2): 36.04% | %Inh3 ([3]; conc 200, repeat 3): 39.63% | %Inh1 ([3]; conc 400, repeat 1): 73.12% | %Inh2 ([3]; conc 400, repeat 2): 80.96% | %Inh3 ([3]; conc 400, repeat 3): 77.01% | IC50 [3, 6]: 320 ± 12 µM | IC50 [3, 7]: 313 µM | IC50 [3, 8]: 310 µM | IC50 [3, 9]: 337 µM

IC50 [2]: 0.38 ± 0.11 µM | IC50 [3, 6]: 66.9 ± 3.5 µM | IC50 [3, 7]: 64.5 µM | IC50 [3, 8]: 64.3 µM | IC50 [3, 9]: 71.8 µM
Structure (SMILES): COc1cc(NC(C)CCCNCCCCOc2ccc(C3CCC4(CC3)OOC3(OO4)C4CC5CC(C4)CC3C5)cc2)c2ncccc2c1Oc1ccccc1 (stereo not shown) [compound 12, N^1-(4-(4-((1r,3r,5r,7r)-Dispiro[adamantane-2,3′-[1,2,4,5]tetraoxane-6′,1″-cyclohexan]-4″-yl)phenoxy)butyl)-N^4-(6-methoxy-5-phenoxyquinolin-8-yl)pentane-1,4-diamine]
SI, selectivity index = CC50 on Vero cells / IC50 in the blood stage [4]: 45.61 | CC50 at 72 h [5]: 17.3 ± 0.36 µM | %Inh1 ([3]; conc 2, repeat 1): 12.59% | %Inh2 ([3]; conc 2, repeat 2): 16.51% | %Inh3 ([3]; conc 2, repeat 3): 8.88% | %Inh1 ([3]; conc 10, repeat 1): 19.10% | %Inh2 ([3]; conc 10, repeat 2): 21.09% | %Inh3 ([3]; conc 10, repeat 3): 14.14% | %Inh1 ([3]; conc 50, repeat 1): 48.21% | %Inh2 ([3]; conc 50, repeat 2): 49.80% | %Inh3 ([3]; conc 50, repeat 3): 51.14% | %Inh1 ([3]; conc 100, repeat 1): 82.20% | %Inh2 ([3]; conc 100, repeat 2): 73.34% | %Inh3 ([3]; conc 100, repeat 3): 64.09% | %Inh1 ([3]; conc 200, repeat 1): 90.25% | %Inh2 ([3]; conc 200, repeat 2): 95.79% | %Inh3 ([3]; conc 200, repeat 3): 87.78% | %Inh1 ([3]; conc 400, repeat 1): 106.35% | %Inh2 ([3]; conc 400, repeat 2): 95.69% | %Inh3 ([3]; conc 400, repeat 3): 97.20%
